Values belong to the compound of their own block, whether it stands above or below them. Where a SMILES comes first, the peptide text is derived from it.
Assays:
[1] = target: T1, human neutrophil elastase (Homo sapiens, UniProt P08246); experiment: Incubation with neutrophil elastase (release of active sequence); type: in vitro ADME; settings: non-fibrillated peptide 1.0 mM, 0.1 M Tris HCl, 500 mM NaCl, 0.05% Triton X-100, 20 mM CaCl2, pH 7.5; enzyme 150 nM; 30 min, 37 °C; RP-UHPLC (PDA) and LC-MS
T1 construct: purchased Sigma Aldrich
T1 sequence (P08246 30-267): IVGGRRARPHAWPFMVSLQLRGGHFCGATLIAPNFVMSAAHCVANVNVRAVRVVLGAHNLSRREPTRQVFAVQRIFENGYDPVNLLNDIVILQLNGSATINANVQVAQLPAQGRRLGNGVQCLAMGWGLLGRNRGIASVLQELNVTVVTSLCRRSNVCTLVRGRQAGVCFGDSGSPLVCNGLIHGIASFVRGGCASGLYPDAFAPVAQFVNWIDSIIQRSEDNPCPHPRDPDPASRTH
Description: An enzymatic stability study was performed using the human neutrophil elastase enzyme (Sigma Aldrich, St. Louis, MO, USA). The peptides were dissolved in a buffer (with composition: 0.1 M Tris HCl, 500 mM NaCl, 0.05% Triton X-100, 20 mM CaCl2, pH 7.5), to a final concentration 1.0 mM. The fibrils formed in the aggregation process were dissolved in PBS at pH 7.4 to a concentration of 1 mg/mL. The enzyme was added to the peptide/fibril solution to a concentration of 150 nM and incubated for 30 min (peptides) or 60 min (fibrils), at 37 °C, with agitation. A 10% aqueous TFA solution was added to the reaction mixture to stop the digestion. The progress of the reaction was monitored by RP-UHPLC with a PDA (Photo Diode Array) detector on a Kinetex C8 column (2.6 μm, 100 Å 2.6 × 100 mm, Phenomenex, Torrance, CA, USA), at a gradient of 0–50% B for 15 min, and by LC-MS.

46BR.1N fibroblasts [2] = experiment: XTT proliferation assay, fibroblasts; type: cell-based, human; settings: for inhibition of proliferation (XTT), in words: up to 25 µg/mL
Description: (§1) Immortalized human HaCaT [69, 70] keratinocytes (DKFZ, Heidelberg, Germany) and the human dermal fibroblast cell line 46BR.1N (ECACC, Sigma Aldrich, St. Louis, MO, USA) were used in the study. Cells were routinely grown in culture flasks (growth surface area 25 cm^2) in Dulbecco’s modified Eagle medium (DMEM, Sigma Aldrich, St. Louis, MO, USA), with 4500 mg/L of glucose, 584 mg/L of L-glutamine, sodium pyruvate, and sodium bicarbonate, supplemented with 10% FBS and 100 units/mL of penicillin and 100 μg/mL of streptomycin (Sigma Aldrich, St. Louis, MO, USA), under a humidified atmosphere with 5% CO2 at 37 °C. Medium was changed every 2–3 days.
(§2) Lactate dehydrogenase (LDH) activity in cell culture supernatants (Takara, Japan, cat. No. MK401) was measured to determine the cytotoxicity of the tested compounds, and the XTT assay was used to evaluate their effect on cell proliferation. Both tests were performed as previously described according to manufacturers’ instructions. Briefly, cells were seeded into 96-well plates, at a density of 5000 cells per well, in DMEM supplemented with 10% FBS. After 24 h the medium was exchanged for serum-free DMEM containing appropriate concentrations of the tested compounds. Supernatants for LDH analysis were collected after 48 h of incubation. The XTT assay was performed after 48 and 72 h of incubation.
(§3) For the analysis of the effect of the peptide fibrils on skin cells, the experiment was performed as described, but the cells were stimulated with 10 µL of the fibrils (50 µg/mL) and incubated for 48 h, when the LDH and XTT assay were then performed.

HaCaT keratinocytes = experiment: XTT proliferation assay, keratinocytes; type: cell-based, human; settings: for inhibition of proliferation (XTT), in words: up to 25 µg/mL
Description: as §1, §2, §3

[3] = Thioflavin T fluorescence assay; type: physicochemical; settings: 1.0 mg/mL in PBS pH 7.4, 37 °C, orbital shaking; ThT excitation 420 nm, emission 482 nm
Description: (§4) All peptides were dissolved in Eppendorf Low Retention Tubes in 1.0 mL of PBS pH 7.4. The concentration of the solutions of peptides was 1.0 mg/mL. The peptides were incubated at 37 °C with constant orbital shaking. Aliquots for the evaluation of the fibrillization process were taken before incubation and after 1, 2, 3, 6, 14, and 21 days or only after 7 days, depending on the experiments.
Ten microliters of peptide solution incubated under fibrillization conditions (see Fibril preparation) were mixed with 10 µL of 1.5 mM ThT in water and 90 µL of PBS pH 7.4. The fluorescence was measured on a Tecan Infinite 200Pro (Tecan Group Ltd., Männedorf, Switzerland) spectrofluorometer in 96-well plates (Costar Black®), with excitation wavelength set at 420 nm and emission in the range of 455 to 600 nm.

[4] = Circular dichroism over incubation; type: physicochemical; settings: 1.0 mg/mL in PBS pH 7.4, 37 °C with agitation, up to 14 days; centrifuged clear solution, far-UV 195-250 nm
Description: Circular dichroism spectra were recorded on a Jasco J-815 spectropolarimeter (Jasco, Victoria, BC, Canada). Far-UV spectra (195–250 nm) were registered for all peptides dissolved in PBS pH 7.4 at a concentration of 1.0 mg/mL and incubated at 37 °C with agitation. Spectra were recorded before and after 1,2, 3, 7, 10 and 14 days of incubation. All spectra were corrected for the buffer signal. The CD spectra were recorded three times, using a 0.2 mm cell.

[5] = Transmission electron microscopy of fibrils; type: physicochemical; settings: 1.0 mg/mL in PBS pH 7.4, TEM, uranyl acetate stain
Description: as §4
Peptide samples (5 µL) were applied on a glow-discharged carbon-coated copper grid (400 mesh). After 1 min of adsorption, excess liquid was removed using filter paper, and the samples were stained with 2% (v/v) aqueous uranyl acetate. The samples were examined with a TECNAI SPIRIT BIO TWIN FEI (FEI Company, Hillsboro, OR, USA) at 120 kV, with nominal magnifications between 11,500 and 39,000. The assay was performed for samples before (after dissolution) and after 3 days of incubation.

[6] = Peptide stability in human plasma (TCA assay); type: in vitro ADME; settings: human plasma (EDTA), 37 °C, 300 rpm, TCA 3% precipitation, RP-HPLC UV 223 nm, at least triplicates
Description: Peptide stability tests were performed according to a TCA stability assay based on the method used by Nguyen et al.. Peptides were dissolved in water, mixed with human plasma* to a final concentration of 1.0 mg/mL, and incubated at 37 °C with agitation (300 rpm, Thermomixer, Eppendorf AG, Hamburg, Germany). After 0, 1, 2, 3, 6 and 24 h, 80 μL of the solution was taken and mixed with 15% TCA to obtain a final concentration of 3% (v/v). The samples were incubated in ice for 10 min and centrifuged for 10 min (12,000 rpm, Microfuge 16, Beckman Coulter, Brea, CA, USA). Supernatants were analyzed by RP-HPLC on column using a linear gradient of acetonitrile (5–100% over 15 min) with detection at 223 nm. Peptides were quantified by their peak areas relative to the initial peak areas (0 min). All stability tests were performed at least in triplicates. As control samples peptides dissolved only in water under the same conditions were used. To additionally assess the changes in the incubated samples (peptide degradation) mass spectrometry analysis was used. LC-MS experiments were performed using ESI-IT-TOF (Shimadzu, Kyoto, Japan).
* Blood was collected from healthy anonymous donors and EDTA was then used as an anticoagulant. The procedure was approved by the Independent Bioethics Commission for Research of the Medical University of Gdańsk (NKBBN/387/2014).

46BR.1N fibroblasts [7] = experiment: LDH cytotoxicity assay, fibroblasts; type: cell-based, human; settings: non-fibrillated peptide 25 µg/mL, 48 h, serum-free DMEM; n = 16
Description: as §1
Lactate dehydrogenase (LDH) activity in cell culture supernatants (Takara, Japan, cat. No. MK401) was measured to determine the cytotoxicity of the tested compounds, and the XTT assay was used to evaluate their effect on cell proliferation. Both tests were performed as previously described according to manufacturers’ instructions. Briefly, cells were seeded into 96-well plates, at a density of 5000 cells per well, in DMEM supplemented with 10% FBS. After 24 h the medium was exchanged for serum-free DMEM containing appropriate concentrations of the tested compounds. Supernatants for LDH analysis were collected after 48 h of incubation. The XTT assay was performed after 48 and 72 h of incubation. […]

[8] = test system: human neutrophil elastase (Sigma Aldrich), 150 nM; experiment: human neutrophil elastase in buffer (0.1 M Tris HCl, 500 mM NaCl, 0.05% Triton X-100, 20 mM CaCl2, pH 7.5); non-fibrillated peptides; settings: 37 °C, up to 30 min
human plasma = settings: 37 °C, up to 24 h
[9] = non-fibrillated peptide, 48 and 72 h, serum-free DMEM, n = 16
[10] = non-fibrillated peptide, 48 and 72 h

Compound: CC[C@H](C)[C@H](NC(=O)CNC(=O)[C@H](C)NC(=O)[C@H](CCC(N)=O)NC(=O)CNC(=O)CNC(=O)CNC(=O)[C@@H](NC(=O)[C@@H]1CCCN1C(=O)[C@H](C)NC(=O)[C@H](C)NC(=O)CNC(=O)CNC(=O)CNC(=O)[C@H](CCCNC(=N)N)NC(=O)[C@H](Cc1ccc(O)cc1)NC(=O)[C@@H](NC(=O)[C@H](CCCCN)NC(=O)[C@H](CC(=O)O)NC(=O)[C@H](CCCNC(=N)N)NC(C)=O)C(C)C)C(C)C)C(=O)N[C@H](C(=O)N[C@H](C(N)=O)C(C)C)C(C)C [FC-IM] (Ac-RDKVYRGGGAAPVGGGQAGIVV-NH2)
Degradation Yes/No by human neutrophil elastase [1]: Yes
increase in proliferation by fibrils compared to control (XTT) (46BR.1N fibroblasts [2]; fibrillated form, 10 µL of fibrils (50 µg/mL), 48 h, three independent experiments): did not stimulate proliferation of either tested cell line
increase in proliferation compared to the control (XTT) (46BR.1N fibroblasts [2]; [9]): 20–30%
inhibition of proliferation (XTT), in words (46BR.1N fibroblasts [2]; [10]): Slight inhibition of the proliferation of fibroblasts was seen at a concentration of 25 µg/mL after 72 h incubation
increase in proliferation by fibrils compared to control (XTT) (HaCaT keratinocytes; fibrillated form, 10 µL of fibrils (50 µg/mL), 48 h, not statistically significant): did not stimulate proliferation of either tested cell line
increase in proliferation compared to the control (XTT) (HaCaT keratinocytes; [9]): 20–30%
inhibition of proliferation (XTT), in words (HaCaT keratinocytes; [10]): did not decrease the proliferation of HaCaT keratinocytes
time course of ThT fluorescence increase (fibrillization) [3]: required at least three days of incubation
secondary structure by CD [4]: disordered structure
fibril thickness (TEM) [5]: 10–12 nm
metabolised at 24 h, 1 mg/mL ([6]; peak area relative to 0 min, read-out: peptide loss in human plasma relative to the initial concentration): 7%

Compound: Ac-GHK-GGG-AAPV-GGG-QAGIVV-NH2
cleaved bond [8]: V-G, major, 30 min

Compound: Ac-RDKVYR GGG-AAPV-GGG-QAGIVV-NH2
not cleaved (human plasma): 7% peptide loss after 24 h
cleaved bond [8]: V-G, major, 30 min
fragment found [8]: Ac-RDKVYRGGGAAPVG-COOH

Second part, led by results:

remaining at 24 h, 1 mg/mL ([6]; rapid precipitation of peptide noted, read-out: peptide remained in solution in human plasma): 11%
Compound: CC[C@H](C)[C@H](NC(=O)CNC(=O)[C@H](C)NC(=O)[C@@H](N)CCC(N)=O)C(=O)N[C@H](C(=O)N[C@H](C(N)=O)C(C)C)C(C)C [FC] (H-QAGIVV-NH2)
inhibition of proliferation (XTT), in words (46BR.1N fibroblasts [2]; [10]): Inhibition of the proliferation of both cell lines was not observed
inhibition of proliferation (XTT), in words (HaCaT keratinocytes; [10]): Inhibition of the proliferation of both cell lines was not observed
cytotoxicity (LDH release) (46BR.1N fibroblasts [7]): about 5%

cleaved bond [8]: V-G, major, 30 min
Compound: Ac-K GHK-GGG-AAPV-GGG-QAGIVV-NH2
